In PMC9969401, “Discovery of 2-(3-Benzamidopropanamido)thiazole-5-carboxylate Inhibitors of the Kinesin HSET (KIFC1) and the Development of Cellular Target Engagement Probes” (Journal of Medicinal Chemistry, 2023):

Molecular target: T1, HSET in DLD1 4N cells (Homo sapiens, UniProt Q9BW19)
T1 construct: overlapped with the signal from the antibody-probed endogenous HSET protein; endogenous in cells; host or cells: DLD1 4N cells
T1 sequence (Q9BW19 1-673): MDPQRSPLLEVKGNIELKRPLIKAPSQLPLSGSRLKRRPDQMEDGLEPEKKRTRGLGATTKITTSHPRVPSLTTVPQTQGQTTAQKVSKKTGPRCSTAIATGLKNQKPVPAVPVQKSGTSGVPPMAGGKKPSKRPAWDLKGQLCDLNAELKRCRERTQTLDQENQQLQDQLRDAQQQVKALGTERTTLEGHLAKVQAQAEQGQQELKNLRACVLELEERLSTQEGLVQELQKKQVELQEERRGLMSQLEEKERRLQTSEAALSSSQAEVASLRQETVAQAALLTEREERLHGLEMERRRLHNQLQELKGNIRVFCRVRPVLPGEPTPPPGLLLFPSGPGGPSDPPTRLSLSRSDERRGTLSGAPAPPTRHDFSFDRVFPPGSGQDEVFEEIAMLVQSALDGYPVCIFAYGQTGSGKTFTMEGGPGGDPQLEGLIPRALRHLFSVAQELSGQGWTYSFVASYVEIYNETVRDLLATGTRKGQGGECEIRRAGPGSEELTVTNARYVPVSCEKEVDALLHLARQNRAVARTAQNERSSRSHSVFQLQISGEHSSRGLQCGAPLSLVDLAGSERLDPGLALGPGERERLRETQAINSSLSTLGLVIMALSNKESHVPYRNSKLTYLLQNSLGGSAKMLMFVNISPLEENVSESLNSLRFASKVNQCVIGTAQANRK
Experiment: Click probe localization target engagement imaging in DLD1 4N cells
Assay type: cell-based
Conditions: for Average Pixel intensity: DLD1 4N, Tz-Cy5 800nM
Method: The Cy-5 tetrazine dye selected for this experiment is not cell-permeable, thus fixation and permeabilization of cells were necessary prior to its addition. Experiments were conducted in DLD1 4N cells and, as a negative control, isogenic 2N DLD1 HSET KO cells in which HSET expression was prevented by the disruption of the HSET gene using CRISPR. Cells were treated first with proTAME for 2 h to accumulate mitotic events, followed by treatment with the TCO probe 40 for 45 min. The live cells were then fixed and permeabilized before treatment with the tetrazine-Cy5 dye and incubation to allow the IEDDA reaction to occur. Additionally, the cells were stained for the endogenous HSET protein using indirect immunofluorescence and imaged to observe the fluorescence from both the TCO probe and antibody-labeled HSET. […] A 3 μM concentration of the probe 40 gave an acceptable signal-to-noise ratio of around 2:1. Even under these optimal conditions, some residual uniform cytoplasmic Cy5 signal was observed within the cells. However, a clear Cy5 decoration of the mitotic spindle was seen, which overlapped with the signal from the antibody-probed endogenous HSET protein (Figures 2A and S6). […] We observed a 14–17-fold increase in signal in DLD1 4N cells treated with 40 relative to tetrazine-Cy5 alone. […] Comparing the intensity of click probe labeling coincident with the mitotic spindle in DLD1 4N cells to that in DLD1 HSET KO cells after both were treated with 40, we observed a twofold higher signal in the former.
Direct target engagement of active inhibitor 36 was measured by calculating its capacity to displace the TCO-containing probe 40. 4N DLD1 cells and DLD1 HSET KO cells (negative control) were plated in 96-well ibidi μ-Clear plates (IB-89626, ibidi). Cells were first treated for 2 h with 8 μM pro-TAME (I-440–01M, R&D system) to accumulate mitotic cells and were then treated with 8 μM MG-132 (S2619, SelleckChem) and 3 μM 40, alone or together with active inhibitor 36 in DMEM media with 1% FBS for 45 min. Cells were then washed three times in DMEM, with the second wash being incubated for 10 min to ensure the optimal reduction of unspecific compound binding. After an additional PBS wash, cells were then fixed in 4% PFA/PBS (15670799, Thermo Scientific) prior to incubation with 400 nM tetraszine-Cy5 (CLK-015-05, Jena Biosciences) in 1.5% FBS/PBS for 10 min at room temperature. Cells were permeabilized by the addition of 0.5% TritonX-100/PBS for 5 min before being stained overnight for Pericentrin (1:1500 ab28144 mouse anti-PCNT, Abcam) and KIFC1 (1:1500 12313S rabbit anti-KIFC1, Cell Signaling Technologies). Secondary antibodies Alexa Fluor 488 donkey antirabbit and Alexa Fluor 555 donkey antimouse (1:1500, A21206 and A31570, respectively, Life Technologies) were added together with 1 μg/mL DAPI (D9542, Sigma) in 1.5% FBS in PBS.
Plates were imaged at 40× using a Zeiss LSM980 confocal microscope with Airyscan 2. The subsequent analysis and quantification were performed using 3D image segmentation with the Arivis4D software. Mitotic cells were segmented by selecting for the highest density (integrated DAPI intensity/total volume), and the mitotic pole areas were segmented using the Pericentrin signal. The signal of the click probe (Cy5) and total KIFC1 (FITC) was measured on the mitotic pole area, and both were normalized to the control condition containing 40 probe alone. The ratio of probe per target (click probe pole integrated intensity signal/KIFC1 pole integrated intensity signal) was used to calculate the occupancy of the probe in the target protein and normalized to the control condition containing 40 probe alone (n > 100 for each replicate, two replicates per concentration point).

SMILES | Average Pixel intensity (5μM, Panel A: 3 quick washes at room temperature) | Average Pixel intensity (5μM, Panel B: 2 quick washes then 1 at 37 °C for 5 minutes) | Average Pixel intensity (5μM, Panel C: 2 quick washes then 1 at 37 °C for 10 minutes) | Average Pixel intensity (10μM, Panel A: 3 quick washes at room temperature) | Average Pixel intensity (10μM, Panel B: 2 quick washes then 1 at 37 °C for 5 minutes) | Average Pixel intensity (10μM, Panel C: 2 quick washes then 1 at 37 °C for 10 minutes) | displacement of TCO probe 40 from HSET in cells (in words) (competition with 3 μM 40, up to 10 μM 36)
CCCOC(=O)c1sc(NC(=O)C[C@H](CCCN(C)C(=O)O[C@@H]2CC/C=C/CCC2)NC(=O)c2cccc(-c3noc(C)n3)c2)nc1C [Compound 38, Propyl 2-((S)-6-(((((S,E)-Cyclooct-4-en-1-yl)oxy)carbonyl)(methyl)amino)-3-(3-(5-methyl-1,2,4-oxadiazol-3-yl)benzamido)hexanamido)-4-methylthiazole-5-carboxylate] | 5372 | 6057 | 4723 | 7167 | 7628 | 6337 | –
CCCOC(=O)c1sc(NC(=O)C[C@H](CCCN(C)C)NC(=O)c2cccc(-c3noc(C)n3)c2)nc1C [Compound 36, Propyl (S)-2-(6-(Dimethylamino)-3-(3-(5-methyl-1,2,4-oxadiazol-3-yl)benzamido)hexanamido)-4-methylthiazole-5-carboxylate] | – | – | – | – | – | – | dose-dependent manner
